Data: patent US5536848A, “Bioactive acetogenins and derivatives” (Purdue Research Foundation, priority 1994, dated 1996)
Converted amounts (≈) assume the structure as drawn. “Also recorded” adds a separate entry of the source. Read-outs that look alike come from different tables or passages of the source.

What was measured:
[1] = tested on: brine shrimp (Artemia salina Leach); assay: Brine shrimp lethality test (BST); format: in vivo; details: for LC50: Artemia salina, read-out: BST LC50
Description: (§1) The brine shrimp (Artemia salina Leach) test (BST) was performed as modified to determine LC50 values in μg/ml. Seven-day in vitro cytotoxicity tests against human tumor cell lines were carried out at the Purdue Cancer Center, using standard protocols for A-549 (human lung carcinoma), MCF-7 (human breast carcinoma) and HT-29 (human colon carcinoma) with adriamycin as a positive control. The reported ED50 values in μg/ml (Table 5) were tabulated from the same run in order to facilitate comparison for the SAR's.
(§2) Bioassays. The brine shrimp (Artemia salina Leach) test (BST) was performed as modified. Zhao et al., Phytochemistry, 33, p. 1065 (1993). Seven-day in vitro cytotoxicity tests against human tumor cell lines were carried out at the Purdue Cancer Center, using standard protocols for A-549 (human lung carcinoma), Gu, Z. M.; Fang, X.-P.; Miesbauer, L. R., Smith, D. L.; and McLaughlin, J. L., 30, 31, and 32-Hydroxybullatacinones: Bioactive Terminally-Hydroxylated Annonaceous Acetogenins from Annona bullata., J. Nat. Prod., 1993, 56, 870-876; MCF-7 (human breast carcinoma) McLaughlin, J. L., Chang, C.-J., and Smith, D. L., Simple Bench-Top Bioassays (Brine Shrimp and Potato Discs) for the Discoveries of Plant Antitumor Compounds: A Review of Recent Progress. In Kinghorn, A. D., Balandrin, J. (Eds): "Human Medicinal Agents from Plants", ACS Symposium Series, Washington, D.C., American Chemical Society, 1993, pp. 112-137; and HT-29 (human colon carcinoma), Mclaughlin, J.L., Chang, C.-J., Smith, D.L., "'Bench-Top' Bioassays for the Discovery of Bioactive Natural Products: An Update", in Rahman, Atta-ur- (Ed): "Studies in Natural Product Chemistry", Vol. 9, Amsterdam, Elsevier, 1991, pp. 383-409, with adriamycin as a positive control. The reported values (Table IV) were tabulated from the same run in order to facilitate comparison for the SAR's.
(§3) Bioassay. The extracts, fractions, and isolates were routinely evaluated for lethality to brine shrimp larvae (BST). Cytotoxicities against human solid tumor cells were measured at the Purdue Cell Culture Laboratory, Purdue Cancer Center, for the A-549 lung carcinoma, MCF-7 breast carcinoma, and HT-29 colon adenocarcinoma.
(§4) The brine shrimp lethality test (BST), on newly hatched naupleii, was performed in our laboratory as previously described. McLaughlin, Methods in Plant Biochemistry, Vol. 6, Hostettmann, Academic Press, London, pp. 1-33 (1991). Seven day cytotoxicities against human solid tumor cells were measured at the Cell Culture Laboratory, Purdue Cancer Center, for the A-549 lung carcinoma, MCF-7 breast carcinoma, and HT-29 colon adenocarcinoma. The respiratory functions of rat liver mitochondria (RMB) were measured polarographically by determination of their rates of oxygen consumption after the addition of acetogenins or their derivatives.

rat liver mitochondria = assay: Rat mitochondrial bioassay (RMB), inhibition of oxygen uptake; format: biochemical; details: for RMB IC50: Table 17, oxygen consumption of rat liver mitochondria, parent and acetal derivative in the same run
Description: as §4
The oxidative phosphorylation pathway (or electron transport chain) is responsible for oxidizing NADH to NAD^+ and producing ATP from ADP and phosphate within the mitochondria. There are five enzyme complexes in this pathway: NADH-ubiquinone reductase (complex I), succinate-ubiquinone reductase (complex II), ubiquinone-cytochrome c reductase (complex III), cytochrome c oxidase (complex IV) and the F0 F1 -ATPase complex (complex V). The end point of the oxidative phosphorylation pathway is the reduction of oxygen (O2) to water in the mitochondria (thus, it is also called respiration), coupled with the synthesis of ATP by complex V. State 4 respiration is the oxidation of substrates in the absence of a phosphate acceptor (e.g., ADP). State 3 respiration occurs when a phosphate acceptor is present and oxygen utilization increases. The ratio of State 3 respiration to State 4 respiration is the respiratory control ratio (RCR).
The process of respiration can be measured by using an oxygen electrode to detect the amount of oxygen present in the assay cell. If respiration is occurring normally, the concentration of oxygen should slowly decrease as it is reduced to water. However, if there is some type of inhibition of oxidative phosphorylation occurring, the oxygen level will no longer decrease at the same rate. This rate of oxygen usage can be visualized by a chart recorder connected to the oxygen electrode. At normal respiration,a decreasing baseline slope will be established. During inhibition, however, the baseline slope should decrease (i.e., the slope will move closer to zero), since the oxygen present is no longer being reduced. In other words, the oxygen concentration in the assay cell is no longer decreasing at the same rate as in normal respiration. Furthermore, inhibition sites at specific complexes can be determined by competitive inhibition studies. This is accomplished by addition of a known inhibitor of, e.g., complex I, followed by the new respiration-inhibiting compound. […] This can be verified by trying inhibitors at other sites and by reversing the order, i.e., adding the new compound and then the known inhibitor.
The method for isolating rat liver mitochondria essentially followed the published methodology. Ahammadsahib et al., Life Sciences, 53, pgs. 1113-1120 (1993). The isolation buffer used for the isolation of mitochondria from rat liver consisted of 4 mM Tris-HC1, 0.5 mM EDTA, and 250 mM sucrose at a pH of 7.4. The isolation buffer was kept at refrigeration temperature at all times by storing on ice during the whole procedure. The rats were supplied by Sprague-Dawley, were male, and weighed approximately 300-320 grams. They were sacrificed with carbon dioxide, and the livers were removed and immediately placed in the isolation buffer on ice. The livers were then rinsed with several washings of cold buffer, cut into pieces, and homogenized. The homogenates were then centrifuged (Sorvall Superspeed RC2-B, 4° C) for 10 minutes at approximately 2000 rpms; the supernatant was next centrifuged for 20 minutes at approximately 9000 rpms. The pellet was reserved and resuspended in 2 ml of assay buffer with a glass pipet. The assay buffer consisted of 100 mM KC1, 5 mM KH2 PO4, 1 mM EDTA, 5 mM glutamate, 1 mM malate, and 20 mM Tris-HCl at a pH of 7.4 and was stored at room temperature. […]

[2] = tested on: A-549 (human lung carcinoma); assay: Seven-day in vitro cytotoxicity, A-549; format: cell-based; details: A549, 168 h
Description: as §1, §2, §3, §4

[3] = tested on: MCF-7 (human breast carcinoma); assay: Seven-day in vitro cytotoxicity, MCF-7; format: cell-based; details: MCF7, 168 h
Description: as §1, §2, §3, §4

[4] = Table 17, seven day cytotoxicity, same run, read-out: MCF-7 ED50
[5] = read-out: MCF-7 ED50, Table 17, seven day cytotoxicity, same run
[6] = read-out: MCF-7 LC50, Table 12, same run

CCCCC(O)CCCCCC(O)C1CCC(C2CCC(C(O)CCCCCCCCCCCCC3=CC(C)OC3=O)O2)O1 (stereo not shown) [Compound 2]
LC50 ([1]; Table 5, brine shrimp larvae): 6 ng/mL (≈ 9.63 nM) | mitochondrial inhibition (rat liver mitochondria; rat liver mitochondria, result in words, listed as bullanin (2)): high activity; also recorded: slightly higher potencies than bullatacin

CCCCCCCCCCC(O)C1CCC(C2CCC(C(O)CCCCC(O)CCCCCCCC3=CC(C)OC3=O)O2)O1 (stereo not shown) [Compound 3, Asimin]
BST LC50 ([1]; Table 5, brine shrimp larvae): 4.6 ng/mL

CCCCCCC(O)CCCC(O)C1CCC(C2CCC(C(O)CCCCCCCCCCCCC3=CC(C)OC3=O)O2)O1 (stereo not shown) [Compound 4, Asiminacin]
LC50 ([1]; Table 5, brine shrimp larvae): 5.7 ng/mL (≈ 9.15 nM)

CCCCCC(O)CCCCC(O)C1CCC(C2CCC(C(O)CCCCCCCCCCCCC3=CC(C)OC3=O)O2)O1 (stereo not shown) [Compound 5, Asiminecin]
LC50 ([1]; Table 5, brine shrimp larvae): 4.9 ng/mL (≈ 7.87 nM) | IC50 ([2]; read-out: A-549 LC50): 0.000329 ng/mL (≈ 0.000528 nM)

CCCCCCCCCCCCCC[C@@H](O)[C@H]1CC[C@H]([C@H](O)CC[C@H](O)CCCCC[C@@H](O)CC2=C[C@H](C)OC2=O)O1 [Compound 8, Goniothalamicin, reference compound]
LC50 ([1]; Table 17, same run): 37000 ng/mL (≈ 62000 nM) | IC50 ([2]; Table 17, seven day cytotoxicity, same run, read-out: A-549 ED50): 0.00711 ng/mL (≈ 0.0119 nM) | IC50 [3, 4]: 0.00573 ng/mL (≈ 0.0096 nM) | RMB IC50 (rat liver mitochondria): 554.8 n moles/Lt/mg protein

CCCCCCCCCCCCCC[C@@H](O)[C@H]1CC[C@@H]([C@@H]2CC[C@@H](CCCCC[C@@H](O)CC3=C[C@H](C)OC3=O)O2)OCO1 [Compound 11, 14,17-formaldehyde acetal derivative]
IC50 ([2]; read-out: A-549 ED50): 0.798 ng/mL (≈ 1.31 nM) | IC50 [3, 5]: 461 ng/mL (≈ 757 nM)

CCCCCC[C@H](O)CCC[C@H](O)[C@H]1CC[C@H]([C@H](O)CC[C@H](O)[C@@H]2CC[C@@H](CCCCCCCCCC3=C[C@H](C)OC3=O)O2)O1 [Compound 13, Squamostatin A, reference compound]
LC50 ([1]; Table 17, same run): 2800 ng/mL (≈ 4380 nM) | IC50 ([2]; read-out: A-549 ED50): 0.268 ng/mL (≈ 0.419 nM) | IC50 [3, 5]: 0.072 ng/mL (≈ 0.113 nM)

CCCCCC[C@H](O)CCC[C@H](O)[C@H]1CC[C@H]([C@H]2CC[C@@H]([C@@H]3CC[C@@H](CCCCCCCCCC4=C[C@H](C)OC4=O)O3)OCO2)O1 [Compound 15, 16,19-mono-formaldehyde acetal derivative]
LC50 ([1]; Table 17, same run): 7 ng/mL (≈ 10.8 nM) | IC50 [3, 4]: 1090 ng/mL (≈ 1670 nM)

CCCCCC[C@H](O)CCC[C@H](O)[C@H]1CC[C@H]([C@H]2CC[C@H]([C@H](O)CCCCCCCCCCCCC3=C[C@H](C)OC3=O)O2)O1 [Compound 16, Squamocin, reference compound]
LC50 ([1]; Table 17, same run): 20 ng/mL (≈ 32.1 nM) | IC50 [3, 5]: 30.3 ng/mL (≈ 48.6 nM) | RMB IC50 (rat liver mitochondria): 21.5 n moles/Lt/mg protein

CCCCCC[C@H]1CCC[C@@H](C2CCC(C3CCC(C(O)CCCCCCCCCCCCC4=CC(C)OC4=O)O3)O2)OCO1 (stereo partly shown) [Compound 17, 24,28-formaldehyde acetal derivative of squamocin]
LC50 ([1]; Table 17, same run): 4.4 ng/mL (≈ 6.93 nM) | IC50 [3, 4]: 695 ng/mL (≈ 1090 nM) | RMB IC50 (rat liver mitochondria): 421.1 n moles/Lt/mg protein

CCCCCCCCCC[C@H](O)[C@H]1CC[C@H]([C@H]2CC[C@@H]([C@@H]3CC[C@@H](CCCCCCC[C@@H](O)CC4=C[C@H](C)OC4=O)O3)OCO2)O1 [Compound 19, 16,19-Formaldehyde acetal derivative of bullatalicin]
LC50 ([1]; Table 17, same run): 49 ng/mL (≈ 75.3 nM) | IC50 [3, 4]: 18.5 ng/mL (≈ 28.4 nM) | RMB IC50 (rat liver mitochondria): 29.8 n moles/Lt/mg protein

CCCCCCCCCC[C@@H](O)[C@H]1CC[C@H]([C@H](O)CC[C@H](O)[C@@H]2CC[C@@H](CCCCCCC[C@@H](O)CC3=C[C@H](C)OC3=O)O2)O1 [Compound 20, Bullatanocin, reference compound]
LC50 ([1]; Table 17, same run): 430 ng/mL (≈ 673 nM) | IC50 [3, 4]: 24.2 ng/mL (≈ 37.9 nM) | RMB IC50 (rat liver mitochondria): 50.7 n moles/Lt/mg protein

CCCCCCCCCC[C@@H](O)[C@H]1CC[C@H]([C@H]2CC[C@@H]([C@@H]3CC[C@@H](CCCCCCC[C@@H](O)CC4=C[C@H](C)OC4=O)O3)OCO2)O1 [Compound 21, 16,19-Formaldehyde acetal derivative of bullatanocin]
LC50 ([1]; Table 17, same run): 6.5 ng/mL (≈ 9.99 nM) | IC50 [3, 4]: 222 ng/mL (≈ 341 nM) | RMB IC50 (rat liver mitochondria): 11.3 n moles/Lt/mg protein

CCCCCCCCCCCCC(O)C1CCC(C(O)CCC(O)C2CCC(CCCCCC(O)CC3=CC(C)OC3=O)O2)O1 (stereo not drawn) [Compound 22, C-18/21-cis-gigantecin]
LC50 ([1]; Table 12): 249 ng/mL (≈ 390 nM)

CCCCCCCCCC[C@H](O)[C@H]1CC[C@H]([C@H]2CC[C@@H]([C@@H]3CC[C@@H](CCCCCCC[C@@H]4CC(CC(C)=O)C(=O)O4)O3)OCO2)O1 (stereo partly drawn) [Compound 27, 16,19-Formaldehyde acetal derivatives of (2,4-cis and trans)-bullatalicinones]
LC50 ([1]; Table 17, same run): 38 ng/mL (≈ 58.4 nM) | IC50 [3, 4]: 63.9 ng/mL (≈ 98.2 nM) | RMB IC50 (rat liver mitochondria): 20.5 n moles/Lt/mg protein

CCCCCCCCCCCC/C=C\CCC(O)C(O)CCC(O)C1CCC(CCCCCC(O)CC2=CC(C)OC2=O)O1 (stereo not shown) [Compound 28, Gigantetronenin, reference compound]
LC50 ([1]; Table 12): 10400 ng/mL (≈ 16700 nM) | IC50 [3, 6]: 1.49e-05 ng/mL (≈ 2.39e-05 nM)

CCCCCCCCCCCC[C@@H](O)[C@H]1CC[C@H]([C@H](O)CC[C@H](O)[C@@H]2CC[C@@H](CCCCC[C@@H](O)CC3=C[C@H](C)OC3=O)O2)O1 [Compound 29, Gigantecin]
LC50 ([1]; Table 12): 34.4 ng/mL (≈ 53.8 nM) | IC50 ([2]; read-out: A-549 LC50): < 10 ng/mL | IC50 [3, 6]: 0.1 ng/mL (≈ 0.157 nM)

C=C(C)[C@H]1Cc2c(ccc3c2O[C@@H]2COc4cc(OC)c(OC)cc4[C@@H]2C3=O)O1 [Rotenone, rotenone, reference compound]
LC50 [1]: 12.3 ng/mL (≈ 31.2 nM) | RMB IC50 (rat liver mitochondria): 34.8 n moles/Lt/mg protein
